Consider one compound from PMC11477194, “3-Alkoxy-1-Benzyl-5-Nitroindazole Derivatives Are Potent Antileishmanial Compounds” (International Journal of Molecular Sciences, 2024).

Assay [1] has as its system promastigotes of L. amazonensis. In words: Scanning and transmission electron microscopy of treated promastigotes. Format: cell-based. The source says:
The concentrations of compounds selected for the study of structural and ultrastructural damage were those corresponding to IC50, ½ IC50, and ¼ IC50 for compound NV8 (reported in this study) and the previously reported compound VATR 131 [21]. The procedure for the treatment of cultures was the same as that described above for the in vitro tests on promastigotes of L. amazonensis. Two negative controls were used: a DMSO-treated culture (0.1%) and an untreated culture.
At the end of the exposure to the compounds, the parasites were washed once with PBS and immediately fixed with 2.5% glutaraldehyde in PBS for 1 h at room temperature. After a thorough wash with PBS, the parasites were fixed with 1% OsO4 in PBS at 4 °C for 1 h and then washed with PBS. The parasites were dehydrated in increasing concentrations of ethanol. Drying was carried out at the critical point of CO2 in a Samdry 780 apparatus (USA). Next, they were evaporated with gold in a Denton Vacuum Desk (USA). Finally, the samples were observed and micrographed using a JSM 6510LB-JEOL microscope at 30 keV.
Promastigotes were washed with PBS and fixed with 2.5% glutaraldehyde solution for 1 h at 4 °C. They were then fixed with a solution of 1% OsO4 in the same buffer at 4 °C and in darkness for 1 h. Promastigotes were washed with PBS at RT and dehydrated in an ethanolic solution in increasing order by up to 100%. They were then included in the epoxy resin using specific molds for polymerization and maintained at 60 °C for a minimum period of 72 h. The blocks were cut with an ultramicrotome (Reichert Jung, Austria) into thin sections. The slices were stained with uranyl acetate and lead citrate and subsequently micrographed using a JEM 1400 transmission electron microscope (JEOL, Ltd., Tokyo, Japan).

Assay [2] has as its system L. amazonensis promastigotes. Also noted: method as in PMID 37915499. The following applies: promastigotes of L. amazonensis; previously reported compound; cited from earlier work.

With `CC(=O)OCCn1c2ccc([N+](=O)[O-])cc2c(=O)n1Cc1ccccc1` [VATR 131], the “Structural damage, scanning electron microscopy” value in assay [1] (L. amazonensis promastigotes treated at IC50, ½ IC50, ¼ IC50) is “an alteration in the morphology of the parasites was observed from the lowest concentration of the compound”. Besides, the “Ultrastructural damage, transmission electron microscopy” value in assay [1] (L. amazonensis promastigotes, 72 h of incubation at IC50, ½ IC50, ¼ IC50) was “very similar to those observed for NV8 at concentrations equivalent to ¼ IC50 and ½ IC50”. The IC50 in assay [2] is 2130 nM.
